Target: T1, GLUT1 (Homo sapiens, UniProt P11166)
T1 sequence (P11166 1-492): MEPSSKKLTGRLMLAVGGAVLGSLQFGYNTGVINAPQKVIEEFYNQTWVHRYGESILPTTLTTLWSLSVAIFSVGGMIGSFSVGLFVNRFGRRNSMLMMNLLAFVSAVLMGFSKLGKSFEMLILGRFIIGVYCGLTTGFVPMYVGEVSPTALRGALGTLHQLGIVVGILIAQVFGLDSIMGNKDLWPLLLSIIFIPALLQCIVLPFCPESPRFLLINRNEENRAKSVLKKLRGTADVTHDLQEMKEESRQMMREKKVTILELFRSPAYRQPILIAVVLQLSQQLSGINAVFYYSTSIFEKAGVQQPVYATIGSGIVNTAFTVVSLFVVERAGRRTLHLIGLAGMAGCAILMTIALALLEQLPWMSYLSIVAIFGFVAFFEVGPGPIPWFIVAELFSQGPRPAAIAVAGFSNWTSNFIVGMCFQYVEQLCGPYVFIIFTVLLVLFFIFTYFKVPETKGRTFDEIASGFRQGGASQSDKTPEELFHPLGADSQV
Assay: Indirect measurement of GLUT1 activity by quantification of intracellular ATP levels (glucose induced ATP increase)
Format: cell-based
Design: endogenous in cells; host or cells: DLD1 or CHO-K1
Settings: read-out: IC50 regarding glucose induced ATP increase (GLUT1 inhibition)
In short: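 Intracellular ATP was measured by CellTiter-Glo luminescence as an indirect readout of transport: glucose-driven for GLUT1, fructose-driven for GLUT2. DLD1 or CHO-K1 cells were used alongside an oxidative phosphorylation inhibitor. Beforehand, cells were held overnight in glucose-free 1% FCS medium to deplete ATP.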

Row | Structure (SMILES) | IC50
1 | Cc1nn(Cc2ccc(F)cc2)c(C)c1NC(=O)c1cc(C(F)(F)F)nc2cc(F)c(Br)cc12 [Example 124, 6-bromo-7-fluoro-N-[1-(4-fluorobenzyl)-3,5-dimethyl-1H-pyrazol-4-yl]-2-(trifluoromethyl)quinoline-4-carboxamide] | 2.3 nM
2 | Cc1nn(Cc2ccc(F)cc2)c(C)c1NC(=O)c1cc(C(N)=O)nc2c(Cl)cc(Cl)cc12 [Example 127, 6,8-dichloro-N^4-[1-(4-fluorobenzyl)-3,5-dimethyl-1H-pyrazol-4-yl]quinoline-2,4-dicarboxamide] | 3.1 nM
3 | Cc1nn(Cc2ccc(F)c(F)c2)c(C)c1NC(=O)c1cc(C(C)C)nc2ccc(Br)cc12 [Example 129, 6-bromo-N-[1-(3,4-difluorobenzyl)-3,5-dimethyl-1H-pyrazol-4-yl]-2-(propan-2-yl)quinoline-4-carboxamide] | 4.1 nM
4 | Cc1c(NC(=O)c2cc(C(N)=O)nc3ccccc23)c(C(F)(F)F)nn1Cc1ccc(F)cc1 [Example 130, N^4-[1-(4-fluorobenzyl)-5-methyl-3-(trifluoromethyl)-1H-pyrazol-4-yl]quinoline-2,4-dicarboxamide] | 4.6 nM
5 | Cc1nn(Cc2ccc(C(N)=O)cc2)c(C)c1NC(=O)c1cc(C(F)(F)F)nc2ccc(Br)cc12 [Example 133, 6-bromo-N-[1-(4-carbamoylbenzyl)-3,5-dimethyl-1H-pyrazol-4-yl]-2-(trifluoromethyl)quinoline-4-carboxamide] | 5.6 nM
6 | Cc1nn(Cc2ccc(C(=O)Nc3ccccc3)cc2)c(C)c1NC(=O)c1cc(C(F)(F)F)nc2ccc(Br)cc12 [Example 134, 6-bromo-N-{3,5-dimethyl-1-[4-(phenylcarbamoyl)benzyl]-1H-pyrazol-4-yl}-2-(trifluoromethyl)quinoline-4-carboxamide] | 6.6 nM
7 | CNC(=O)c1ccc(Cn2nc(C)c(NC(=O)c3cc(C(F)(F)F)nc4ccc(Br)cc34)c2C)cc1 [Example 135, 6-bromo-N-{3,5-dimethyl-1-[4-(methylcarbamoyl)benzyl]-1H-pyrazol-4-yl}-2-(trifluoromethyl)quinoline-4-carboxamide] | 8.1 nM
8 | Cc1nn(Cc2ccc(C(=O)NCCN3CCOCC3)cc2)c(C)c1NC(=O)c1cc(C(F)(F)F)nc2ccc(Br)cc12 [Example 136, 6-bromo-N-[3,5-dimethyl-1-(4-{[2-(morpholin-4-yl)ethyl]carbamoyl}benzyl)-1H-pyrazol-4-yl]-2-(trifluoromethyl)quinoline-4-carboxamide] | 9 nM
9 | COCCNC(=O)c1ccc(Cn2nc(C)c(NC(=O)c3cc(C(F)(F)F)nc4ccc(Br)cc34)c2C)cc1 [Example 137, 6-bromo-N-(1-{4-[(2-methoxyethyl)carbamoyl]benzyl}-3,5-dimethyl-1H-pyrazol-4-yl)-2-(trifluoromethyl)quinoline-4-carboxamide] | 10.7 nM
10 | Cc1nn(Cc2ccc(C(=O)NCCO)cc2)c(C)c1NC(=O)c1cc(C(F)(F)F)nc2ccc(Br)cc12 [Example 139, 6-bromo-N-(1-{4-[(2-hydroxyethyl)carbamoyl]benzyl}-3,5-dimethyl-1H-pyrazol-4-yl)-2-(trifluoromethyl)quinoline-4-carboxamide] | 31.7 nM
11 | Cc1nn(Cc2ccc(C(=O)NCCN(C)C)cc2)c(C)c1NC(=O)c1cc(C(F)(F)F)nc2ccc(Br)cc12 [Example 142, 6-bromo-N-[1-(4-{[2-(dimethylamino)ethyl]carbamoyl}benzyl)-3,5-dimethyl-1H-pyrazol-4-yl]-2-(trifluoromethyl)quinoline-4-carboxamide] | 70.7 nM
12 | Cc1nn(Cc2ccc(F)c(F)c2)c(C)c1NC(=O)c1cc(C2CCC2)nc2ccc(Br)cc12 [Example 144, 6-bromo-2-cyclobutyl-N-[1-(3,4-difluorobenzyl)-3,5-dimethyl-1H-pyrazol-4-yl]quinoline-4-carboxamide] | 5.7 nM
13 | Cc1nn(Cc2ccc(F)c(F)c2)c(C)c1NC(=O)c1cc(C2CC2)nc2ccc(Cl)cc12 [Example 145, 6-chloro-2-cyclopropyl-N-[1-(3,4-difluorobenzyl)-3,5-dimethyl-1H-pyrazol-4-yl]quinoline-4-carboxamide] | 6.1 nM
14 | COC(=O)Cc1ccc(Cn2nc(C)c(NC(=O)c3cc(C(F)(F)F)nc4ccc(Br)cc34)c2C)cc1 [Example 150, methyl (4-{[4-({[6-bromo-2-(trifluoromethyl)quinolin-4-yl]carbonyl}amino)-3,5-dimethyl-1H-pyrazol-1-yl]methyl}phenyl)acetate] | 11.7 nM
15 | Cc1nn(Cc2ccc(CC(=O)O)cc2)c(C)c1NC(=O)c1cc(C(F)(F)F)nc2ccc(Br)cc12 [Example 151, (4-{[4-({[6-bromo-2-(trifluoromethyl)quinolin-4-yl]carbonyl}amino)-3,5-dimethyl-1H-pyrazol-1-yl]methyl}phenyl)acetic acid] | 1280 nM
16 | Cc1nn(Cc2ccc(CC(N)=O)cc2)c(C)c1NC(=O)c1cc(C(F)(F)F)nc2ccc(Br)cc12 [Example 152, N-{1-[4-(2-amino-2-oxoethyl)benzyl]-3,5-dimethyl-1H-pyrazol-4-yl}-6-bromo-2-(trifluoromethyl)quinoline-4-carboxamide] | 58.3 nM

Continued, values first:

Row | IC50 | Structure (SMILES)
17 | 2.5 nM | Cc1nn(Cc2ccc(F)cc2)c(C)c1NC(=O)c1cc(C2CC2)nc2ccc(Cl)cc12 [Example 125, 6-chloro-2-cyclopropyl-N-[1-(4-fluorobenzyl)-3,5-dimethyl-1H-pyrazol-4-yl]quinoline-4-carboxamide]
18 | 3.3 nM | Cc1c(NC(=O)c2cc(C(N)=O)nc3ccccc23)c(C(F)(F)F)nn1Cc1ccc(F)c(F)c1 [Example 128, N^4-[1-(3,4-difluorobenzyl)-5-methyl-3-(trifluoromethyl)-1H-pyrazol-4-yl]quinoline-2,4-dicarboxamide]
19 | 8.3 nM | COC(=O)c1ccc(Cn2nc(C)c(NC(=O)c3cc(C(F)(F)F)nc4ccc(Br)cc34)c2C)cc1 [Example 131, methyl 4-{[4-({[6-bromo-2-(trifluoromethyl)quinolin-4-yl]carbonyl}amino)-3,5-dimethyl-1H-pyrazol-1-yl]methyl}benzoate]
20 | 5560 nM | Cc1nn(Cc2ccc(C(=O)O)cc2)c(C)c1NC(=O)c1cc(C(F)(F)F)nc2ccc(Br)cc12 [Example 132, 4-{[4-({[6-bromo-2-(trifluoromethyl)quinolin-4-yl]carbonyl}amino)-3,5-dimethyl-1H-pyrazol-1-yl]methyl}benzoic acid]
21 | 18.1 nM | Cc1nn(Cc2ccc(C(=O)NCc3cccnc3)cc2)c(C)c1NC(=O)c1cc(C(F)(F)F)nc2ccc(Br)cc12 [Example 138, 6-bromo-N-(3,5-dimethyl-1-{4-[(pyridin-3-ylmethyl)carbamoyl]benzyl}-1H-pyrazol-4-yl)-2-(trifluoromethyl)quinoline-4-carboxamide]
22 | 50 nM | Cc1nn(Cc2ccc(C(=O)NCc3ccccc3)cc2)c(C)c1NC(=O)c1cc(C(F)(F)F)nc2ccc(Br)cc12 [Example 140, N-{1-[4-(benzylcarbamoyl)benzyl]-3,5-dimethyl-1H-pyrazol-4-yl}-6-bromo-2-(trifluoromethyl)quinoline-4-carboxamide]
23 | 69.4 nM | Cc1nn(Cc2ccc(C(=O)N3CCOCC3)cc2)c(C)c1NC(=O)c1cc(C(F)(F)F)nc2ccc(Br)cc12 [Example 141, 6-bromo-N-{3,5-dimethyl-1-[4-(morpholin-4-ylcarbonyl)benzyl]-1H-pyrazol-4-yl}-2-(trifluoromethyl)quinoline-4-carboxamide]
24 | 85.3 nM | Cc1nn(Cc2ccc(C(=O)N(C)C)cc2)c(C)c1NC(=O)c1cc(C(F)(F)F)nc2ccc(Br)cc12 [Example 143, 6-bromo-N-{1-[4-(dimethylcarbamoyl)benzyl]-3,5-dimethyl-1H-pyrazol-4-yl}-2-(trifluoromethyl)quinoline-4-carboxamide]
25 | 7.9 nM | Cc1nn(Cc2ccc(F)cc2)c(C)c1NC(=O)c1cc(C2CCC2)nc2ccc(Br)cc12 [Example 146, 6-bromo-2-cyclobutyl-N-[1-(4-fluorobenzyl)-3,5-dimethyl-1H-pyrazol-4-yl]quinoline-4-carboxamide]
26 | 8.2 nM | Cc1nn(Cc2ccc(C#N)nc2)c(C)c1NC(=O)c1cc(C(F)(F)F)nc2ccc(Br)cc12 [Example 147, 6-bromo-N-{1-[(6-cyanopyridin-3-yl)methyl]-3,5-dimethyl-1H-pyrazol-4-yl}-2-(trifluoromethyl)quinoline-4-carboxamide]
27 | 11.4 nM | Cc1nn(Cc2ccc(Cl)cc2)c(C)c1NC(=O)c1cc(C(F)(F)F)nc2ccc(Br)cc12 [Example 148, 6-bromo-N-[1-(4-chlorobenzyl)-3,5-dimethyl-1H-pyrazol-4-yl]-2-(trifluoromethyl)quinoline-4-carboxamide]
28 | 11.7 nM | COC(=O)c1ccc2nc(C(F)(F)F)cc(C(=O)Nc3c(C)nn(Cc4ccc(F)cc4)c3C)c2c1 [Example 149, methyl 4-{[1-(4-fluorobenzyl)-3,5-dimethyl-1H-pyrazol-4-yl]carbamoyl}-2-(trifluoromethyl)quinoline-6-carboxylate]
29 | 95.8 nM | CNC(=O)Cc1ccc(Cn2nc(C)c(NC(=O)c3cc(C(F)(F)F)nc4ccc(Br)cc34)c2C)cc1 [Example 153, 6-bromo-N-(3,5-dimethyl-1-{4-[2-(methylamino)-2-oxoethyl]benzyl}-1H-pyrazol-4-yl)-2-(trifluoromethyl)quinoline-4-carboxamide]

Source: patent US20170037028A1 (BAYER PHARMA AKTIENGESELLSCHAFT, priority 2013, published 2017)
